Measured values taken from patent USRE34313E, “Pharmaceutical compositions” (priority 1983, dated 1993).
Read-outs that look alike come from different tables or passages of the source.

Legend:
[1] = tested on: Horse spleen ferritin; assay: Mobilisation of iron from ferritin; assay type: biochemical; details: 3×10^-3 M pyridone, ferritin 10^-6 M, pH 7.4, dialysis
Protocol: Horse spleen ferritin (Sigma) was without further purification and its iron content was estimated spectrophotometrically at 420 nm. The ferritin solution in phosphate buffered saline (Dulbecco-OXOID, 10^-6 M, pH 7.4) was enclosed in a Visking dialysis tube and dialysed against a 3×10^-3 M buffered solution of one of various pyridones as indicated in Table 2. The absorption spectrum of the resulting iron(III) complex in the dialysis solution was recorded after 6 and 24 hours. For comparative purposes, the procedure was repeated using a blank control.

[2] = tested on: Human transferrin; assay: Mobilisation of iron from transferrin; assay type: biochemical; details: 4×10^-3 M compound, 59Fe(III) transferrin 10^-5 M; for Percentage of iron removed from transferrin, 6 hours: tris HCl pH 7.4, 6 hours; for Percentage of iron removed from transferrin, 24 hours: tris HCl pH 7.4, 24 hours
Protocol: The solution was then dialysed against phosphate buffered saline for 24 hours. The ^59 Fe remaining in the dialysis tube was then […]. For comparative purposes, this procedure was repeated with desferrioxamine and EDTA.

[3] = physchem; details: pH 7.4; for Partition coefficient Kpart, Iron complex [FeIII-(compound)3]: 100 uM; for logD at 100 µM: tris hydrochloride 20 mm
Protocol: Acid washed glassware is used throughout and, following mixing of 5 ml of the 10^-4 M aqueous solution with 5 ml n-octanol for 1 minute, the aqueous n-octanol mixture is centrifuged at 1,000 g for 30 seconds. The two resulting phases are separated for a concentration determination by spectrophotometry on each. For the free hydroxypyridones, the range 220-340 nm is used for concentration determinations whilst for the iron complexes, the range […] is used.

[4] = tested on: Apotransferrin; assay: Ability of iron complexes to donate iron to apotransferrin; assay type: biochemical; details: complex 10^-4 M, apotransferrin 10^-4 M, tris hydrochloride pH 7.4, 37° C., 10 minutes
Protocol: Apotransferrin (10^-4 M) and the iron complex of 1-hydroxy-4-methoxypyrid-4-one (10^-4 M; prepared as described in Example 7) were incubated together in tris hydrochloride (50 mM, buffered to pH 7.4) at 37° C. for 10 minutes when a 1 ml aliquot was removed from the medium and added to a PD10 colum. 0.5 ml fractions were collected directly into scintillation vials for counting.

[5] = tested on: Horse spleen ferritin; details: cited from earlier work
[6] = log Ksol, affinity for iron(III); assay type: physicochemical
Description: In order to solubilise iron(III) hydroxide, log Ksol must be greater than 0 and in order to remove iron from transferrin, log Ksol should be in excess of 6.0.

[7] = tested on: inverted rat jejunal sac; assay: In vitro permeation of rat jejunal sac by iron complexes; details: uptake into serosal space of everted rat jejunal sac, 37° C., up to 1 hour, relative to ferric chloride as 1
Protocol: The iron uptake into the serosal space of the inverted rat jejunal sac was compared for various iron compounds. Rats (male Sprague Dawley, 60 g) were killed and the jejunum removed, everted and cut into three segments (4 cm length). The segments were tied at both ends and filled with Krebs Ringer buffer (0.2 ml) and incubated in Krebs Ringer buffer containing ^59 Fe complexes at 37° C. for periods up to 1 hour. The contents of the sac were counted for ^59 Fe and measured spectrophotometrically.

[8] = tested on: Mice; assay: In vivo test of iron binding capacity: excretion of 59Fe in iron-loaded mice; details: control = 100% excretion
Protocol: Mice were injected intraperitoneally with iron dextran (2 mg) at weekly intervals over a four week period. Two weeks after the final injection, the mice were injected via the tail vein with ^59 Fe Lactoferrin (human lactoferrin, 1 mg per injection 2 μCi). The mice were then caged individually. After a ten day period, 1,4-hydroxypyrid-2-one was administered to groups of 8 mice at 10 mg per mouse either intraperitoneally or intragastrically (in each case 3 of the mice received only one dose whilst 5 received 2 doses at a 24 hour interval). The excretion of iron was recorded at either 12 or 24 hourly intervals over a three day period before and a two day period after administration of the compound. For comparative purposes, the procedure was repeated with a blank control and with desferrioxamine, also at 10 mg per mouse (the intraperitoneally treated mice receiving one dose of desferrioxamine and the intragastrically treated mice two doses at a 24 hour interval).
The results are shown in Table 4, being given on the basis of the control representing 100% excretion, and illustrate the particular advantage of the pyridones as compared with desferrioxamine for oral administration. […] However, this is not the case here, the large SD values being a consequence of the large range among the positive responses.

| Partition coefficient Kpart, Iron complex [FeIII-(compound)3] [3] | logD at 100 µM [3] | log Ksol [6] | SMILES | Percentage of iron removed from ferritin, 6 hours [1] | Percentage of iron removed from ferritin, 24 hours [1] | Percentage of iron removed from transferrin, 6 hours [2] | Percentage of iron removed from transferrin, 24 hours [2] | also measured |
| --- | --- | --- | --- | --- | --- | --- | --- | --- |
| 0.6 | -0.854 | – | COCCOc1ccn(O)c(=O)c1 [1-hydroxy-4-(2'-methoxyethoxy)-pyrid-2-one] | 2% | 8% | 72% | 75% | – |
| – | – | – | COc1ccn([O-])c(=O)c1.COc1ccn([O-])c(=O)c1.COc1ccn([O-])c(=O)c1.[Fe+3] | – | – | – | – | iron removed from the iron complex (donated to apotransferrin) [4]: over 90% |
| – | – | – | O=C(NCCCCN(CCCNC(=O)c1cc(S(=O)(=O)O)cc(O)c1O)C(=O)c1cc(S(=O)(=O)O)cc(O)c1O)c1cc(S(=O)(=O)O)cc(O)c1O [LICAMS] | – | – | – | – | Percentage of iron removed from ferritin, 6 hours ([5]; 6 mM LICAMS + 12 mM ascorbic acid, similar test from literature (Tufano et al)): 7% |
| – | – | 6.0 | CC(=O)N(O)CCCCCNC(=O)CCC(=O)N(O)CCCCCNC(=O)CCC(=O)N(O)CCCCCN [Desferrioxamine, desferrioxamine, reference compound] | – | – | 17% | 22% | Percentage of iron removed from ferritin, 6 hours ([5]; 1 mM desferrioxamine, similar test from literature (Crichton et al)): 1.5% |
| – | – | – | O=C(O)CN(CCN(CC(=O)O)CC(=O)O)CC(=O)O [EDTA, ethylenediamine tetra-acetic acid, reference compound] | – | – | 27% | 67% | – |
| – | – | 2.0 | O=C(O)CN(CCN(CC(=O)O)CC(=O)O)CCN(CC(=O)O)CC(=O)O [diethylenetriamine pentaacetic acid, reference compound] | – | – | – | – | – |
| – | – | – | [Cl][Fe]([Cl])[Cl] [FeCl3, ferric chloride] | – | – | – | – | Relative Iron Uptake [7]: 1 |
| 4.85 | -0.824 | 11.3 | COc1ccn(O)c(=O)c1 [1-hydroxy-4-methoxypyrid-2-one] | 13% | 46% | 70% | 71% | – |
| – | – | – | O=C([O-])[C@H](O)[C@@H](O)[C@H](O)[C@H](O)CO.O=C([O-])[C@H](O)[C@@H](O)[C@H](O)[C@H](O)CO.[Fe+2] [Fe^II gluconate] | – | – | – | – | Relative Iron Uptake [7]: 1.6 |

| SMILES | Partition coefficient Kpart, Iron complex [FeIII-(compound)3] [3] | logD at 100 µM [3] | log Ksol [6] | Percentage of iron removed from ferritin, 6 hours [1] | Percentage of iron removed from ferritin, 24 hours [1] | Percentage of iron removed from transferrin, 6 hours [2] | Percentage of iron removed from transferrin, 24 hours [2] | also measured |
| --- | --- | --- | --- | --- | --- | --- | --- | --- |
| O=c1cc(O)ccn1O [1,4-dihydroxypyrid-2-one] | 0.04 | -1.4 | 9.9 | 22% | 54% | 80% | 91% | Excretion of 59Fe ± SD, Intraperitoneal Administration ([8]; 10 mg per mouse i.p.): 195 ± 57%; Excretion of 59Fe ± SD, Intragastric Administration ([8]; 10 mg per mouse intragastrically): 166 ± 40% |
